Test results reported in patent US10463712B2, “Human catestatin induces gut microbiota dysbiosis” (University of Manitoba, priority 2015, dated 2019).
Where no end group is shown, it is not given here.

Tests used:
fecal microbiota = experiment: Fecal microbiota composition by Illumina 16S rRNA sequencing after intrarectal CTS; assay type: in vivo, C57BL/6 mice; settings: for Mean percentage of sequence in total bacterial population: CTS 1.5 mg/kg/day i.r. 6 days
Procedure: (§1) Male C57BL/6 mice (7-9 weeks old) were purchased from Charles River (Canada) and maintained in the animal care facility at the University of Manitoba. The experimental protocol was approved by the University of Manitoba Animal Ethics Committee (10-073) and the research was conducted according to the Canadian Guidelines for Animal Research. Two groups of 4 and 6 mice were studied, one receiving the vehicle solution and one receiving intra-rectal Infusion of CTS for 6 days.
(§2) Saline (0.9%) was injected in the control group. Mice were anaesthetized using Isoflurane (Abbott, Toronto, Canada).
(§3) Samples were collected 6 days post-treatment induction, after euthanasia under isoflurane (Abbot) anaesthesia. The macroscopic score was determined on the sacrifice day based on stool consistency, rectal prolapse and rectal and colonic bleeding. On the day of sacrifice, a 250 mg fecal sample and a portion of the colon were collected in individual collector tubes from each animal. All samples were preserved at −80° C. before use.
(§4) Colons were opened and 50 mg of scrapings were taken from the inside. Samples were homogenized at room temperature, and genomic DNA was extracted from 250 mg fecal mass using a ZR fecal DNA Kit (Zymo Research Corp., Orange, Calif.). DNA extraction was performed using a Qiagen DNeasy blood & tissue kit (Qiagen corp, Valencia, USA). Both DNA extraction kits have a bead-beating step to lyse microbial cells. To match the concentration requirement for pyrosequencing, DNA quantity was determined using a Beckman DU/800 spectrophotometer (Beckman Coulter, Inc., Fullerton, Calif.). Genomic DNA was normalized to achieve a concentration of 20 ng/μL, and quality-checked by 16S rRNA gene using PCR amplification of 27F (5′-[…]-3′, SEQ ID NO:2) and 342R (5′-[…]-3′, SEQ ID NO:3)^58, 59. Amplicons were verified by agarose gel electrophoresis.
(§5) Library construction and Illumina sequencing were performed as described by Derakhshani et al.^60. Briefly, the […] region of the 16S rRNA gene was targeted for PCR amplification using modified F515/R806 primers^61. A reverse PCR primer was Indexed with 12-base Golay barcodes to allow for sample multiplexing. The PCR reaction for each sample was performed in duplicate and contained 1.0 μl of pre-normalized DNA, 1.0 μl each of forward and reverse primers (10 μM), 12 μl HPLC grade water (Fisher Scientific, ON, Canada) and 10 μl 5 Prime Hot MasterMix® (5 Prime, Inc., Gaithersburg, USA). Reactions consisted of an initial denaturing step at 94° C. for 3 min followed by 35 amplification cycles at 94° C. for 45 sec, 50° C. for 60 sec and 72° C. for 90 sec; this was followed by an extension step at 72° C. for 10 min in an Eppendorf Mastercycler® (Eppendorf, Hamburg, Germany). PCR products were then purified using a ZR-96 DNA Clean-up Kit™ (ZYMO Research, CA, USA) to remove primers, dNTPs and reaction components. The V4 library was then generated by pooling 200 ng of each sample, and quantified using Picogreen dsDNA (Invitrogen, NY, USA). This was followed by multiple dilution steps using pre-chilled hybridization buffer (HT1) (Illumina, CA, USA) to bring the pooled ampilcons to a final concentration of […], and the concentration was measured through optical density using a Qubit® 2.0 Fluorometer (Life technologies, ON, Canada). […] The 150 paired-end sequencing reaction was performed on a MISeq platform (Illumina, CA, USA) at the Gut Microbiome and Large Animal Biosecurity Laboratories, Department of Animal Science, University of Manitoba, Canada.
(§6) Bioinformatics analyses were performed as described by Derakhshani et al.^60. Briefly, the PANDAseq assembler^62 was used to merge overlapping paired-end Illumina fastq files. All the sequences with mismatches or ambiguous calls in the overlapping region were discarded. The output fastq file was then analyzed using downstream computational pipelines in the open source software package QIIME^63.

[1] = test system: colonic mucosa associated microbiota; experiment: Colonic mucosa associated microbiota composition by Illumina 16S rRNA sequencing after intrarectal CTS; assay type: in vivo, C57BL/6 mice; settings: for Mean percentage of sequence in total bacterial population: CTS 1.5 mg/kg/day i.r. 6 days
Procedure: as §1, §2, §3, §4, §5, §6

[2] = test system: Staphylococcus aureus, group A Streptococcus, Escherichia coli, Pseudomonas aeruginosa, Candida albicans, Aspergillus niger, A. fumigates, Trichophyton rubrum; settings: gram-positive and gram-negative bacteria, yeasts, filamentous fungi; cited from earlier work
induced colitis = settings: Rabbi et al. 2014; cited from earlier work
[3] = fecal samples, R^2=0.94, Q^2=0.57
[4] = colonic mucosa associated samples
[5] = colonic mucosa associated samples, R^2=0.32, Q^2=0.242

**Q.** With SSMKLSFRARAYGFRGPGPQL [CTS] as the sequence, how does the “E. coli levels in the gut” value (fecal microbiota; CTS administration in vivo) read?
**A.** The value was “not affected”.

**Q.** What about the “S. aureus levels in the gut” value (fecal microbiota; CTS administration in vivo) of the same sequence?
**A.** Its value is “not affected”.

**Q.** What about the “Impact on Chao1, ACE, Shanon and Simpson indices of α-diversity” value (fecal microbiota; fecal bacterial community, vs control) of the same sequence?
**A.** Its value is “no significant impact”.

**Q.** And the “Effect on Verrucomicrobia” value (fecal microbiota; fecal samples)?
**A.** The value was “lowered”.

**Q.** And the “β-diversity (unweighted UniFrac, PERMANOVA): bacterial community vs controls” value (fecal microbiota; fecal samples, P<0.05)?
**A.** Its value is “clustered separately”.

**Q.** What about the “PLS-DA association with CTS treatment: Adlercreutzia, Allobaculum, Bacteroidaceae (Family), Clostridia (Class), Ruminococcaceae (Family)” value (fecal microbiota; [3]) of the same sequence?
**A.** Its value is “negative association”.

**Q.** What about the “PLS-DA association with CTS treatment: Alpharoteobacteria (Class), Bacteroidales (Order), RF32 (Order), mitochondria (Family), YS2 (Order)” value (fecal microbiota; [3]) of the same sequence?
**A.** The value was “positive association”.

**Q.** And the “PLS-DA association with CTS treatment: genera Prevotella, Bacteroides Ovatus, Bacteroides, Parabacteroides distarosis, Parabacteroides and Dorea” value (fecal microbiota; [3])?
**A.** The value was “positively associated”.

**Q.** And the “Change of Firmicutes population vs control” value (fecal microbiota; feces, P<0.001)?
**A.** The value was “significantly decreased”.

**Q.** What about the “Change of relative abundance of Bacteroidetes vs control” value (fecal microbiota; feces, P<0.05) of the same sequence?
**A.** The value was “significantly increased”.

**Q.** What about the “Prevotella, Bacteroides, and Parabacteroides populations” value (fecal microbiota; feces, lower taxonomical level) of the same sequence?
**A.** The value was “significant increase”.

**Q.** And the “Mean percentage of sequence in total bacterial population” value (from here on “Mean percentage of sequence”) (fecal microbiota; phylum Actinobacteria, fecal samples)?
**A.** The value was 0.1877%.

**Q.** What about the “Mean percentage of sequence” value (fecal microbiota; phylum Bacteroidetes, fecal samples) of the same sequence?
**A.** The value was 74%.

**Q.** And the “Mean percentage of sequence” value (fecal microbiota; phylum Cyanobacteria, fecal samples)?
**A.** The value was 0.152%.

**Q.** And the “Mean percentage of sequence” value (fecal microbiota; phylum Deferribacteres, fecal samples)?
**A.** The value was 1.144%.

**Q.** And the “Mean percentage of sequence” value (fecal microbiota; phylum Fibrobacteres, fecal samples)?
**A.** Its value is 0.000541%.

**Q.** What about the “Mean percentage of sequence” value (fecal microbiota; phylum Firmicutes, fecal samples) of the same sequence?
**A.** Its value is 20.56%.

**Q.** And the “Mean percentage of sequence” value (fecal microbiota; phylum Proteobacteria, fecal samples)?
**A.** The value was 2.873%.

**Q.** What about the “Mean percentage of sequence” value (fecal microbiota; phylum TM7, fecal samples) of the same sequence?
**A.** The value was 0.003098%.

**Q.** And the “Mean percentage of sequence” value (fecal microbiota; phylum Tenericutes, fecal samples)?
**A.** Its value is 0.4046%.

**Q.** What about the “Mean percentage of sequence” value (fecal microbiota; phylum Unclassified, fecal samples) of the same sequence?
**A.** The value was 0.4142%.

**Q.** And the “Mean percentage of sequence” value (fecal microbiota; phylum Verrucomicrobia, fecal samples)?
**A.** The value was 0.266%.

**Q.** And the “Impact on Chao1, ACE, Shanon and Simpson indices of α-diversity” value ([1]; colonic mucosa associated bacterial community, vs control)?
**A.** Its value is “no significant impact”.

**Q.** What about the “Effect on Verrucomicrobia” value [1, 4] of the same sequence?
**A.** Its value is “lowered”.

**Q.** What about the “Impact on relative abundance of bacterial phyla” value [1, 4] of the same sequence?
**A.** Its value is “no significant impact”.

**Q.** What about the “β-diversity (PERMANOVA): bacterial community vs controls” value [1, 4] of the same sequence?
**A.** The value was “no significant change”.

**Q.** What about the “PLS-DA association with CTS treatment: Bacteroidales, Chitinophagaceae, Clostridlaceae, Clostridiales, Coriobacteriaceae, Pseudomonadaceae, Rikenellaceae, Ruminococcaceae, YS2” value [1, 5] of the same sequence?
**A.** The value was “positive association”.

**Q.** What about the “PLS-DA association with CTS treatment: genera Bifidobacterium and Stenotrophomonas” value [1, 5] of the same sequence?
**A.** Its value is “positive association”.

**Q.** And the “Mean percentage of sequence” value ([1]; phylum Acidobacteria, colonic mucosa associated samples)?
**A.** Its value is 0.03339%.

**Q.** And the “Mean percentage of sequence” value ([1]; phylum Actinobacteria, colonic mucosa associated samples)?
**A.** Its value is 0.0724%.

**Q.** And the “Mean percentage of sequence” value ([1]; phylum Armatimonadetes, colonic mucosa associated samples)?
**A.** Its value is 0.000879%.

**Q.** And the “Mean percentage of sequence” value ([1]; phylum Bacteroidetes, colonic mucosa associated samples)?
**A.** The value was 21.0435%.

**Q.** What about the “Mean percentage of sequence” value ([1]; phylum Chlamydiae, colonic mucosa associated samples) of the same sequence?
**A.** Its value is 0.00306%.

**Q.** What about the “Mean percentage of sequence” value ([1]; phylum Chlorobi, colonic mucosa associated samples) of the same sequence?
**A.** The value was 0.002098%.

**Q.** What about the “Mean percentage of sequence” value ([1]; phylum Cyanobacteria, colonic mucosa associated samples) of the same sequence?
**A.** The value was 0.1752%.

**Q.** What about the “Mean percentage of sequence” value ([1]; phylum Deferribacteres, colonic mucosa associated samples) of the same sequence?
**A.** Its value is 5.95%.

**Q.** What about the “Mean percentage of sequence” value ([1]; phylum Fibrobacteres, colonic mucosa associated samples) of the same sequence?
**A.** Its value is 0.01378%.

**Q.** And the “Mean percentage of sequence” value ([1]; phylum Firmicutes, colonic mucosa associated samples)?
**A.** Its value is 12.52%.

**Q.** And the “Mean percentage of sequence” value ([1]; phylum Lentisphaerae, colonic mucosa associated samples)?
**A.** The value was 0.00457%.

**Q.** And the “Mean percentage of sequence” value ([1]; phylum OD1, colonic mucosa associated samples)?
**A.** Its value is 0.004988%.

**Q.** What about the “Mean percentage of sequence” value ([1]; phylum OP3, colonic mucosa associated samples) of the same sequence?
**A.** The value was 0.001604%.

**Q.** And the “Mean percentage of sequence” value ([1]; phylum Planctomycetes, colonic mucosa associated samples)?
**A.** The value was 0.004664%.

**Q.** What about the “Mean percentage of sequence” value ([1]; phylum Proteobacteria, colonic mucosa associated samples) of the same sequence?
**A.** The value was 59.17%.

**Q.** What about the “Mean percentage of sequence” value ([1]; phylum Spirochaetes, colonic mucosa associated samples) of the same sequence?
**A.** Its value is 0.08226%.

**Q.** What about the “Mean percentage of sequence” value ([1]; phylum TM7, colonic mucosa associated samples) of the same sequence?
**A.** The value was 0.007409%.

**Q.** What about the “Mean percentage of sequence” value ([1]; phylum Tenericutes, colonic mucosa associated samples) of the same sequence?
**A.** Its value is 0.3714%.

**Q.** And the “Mean percentage of sequence” value ([1]; phylum Unclassified, colonic mucosa associated samples)?
**A.** The value was 0.2915%.

**Q.** And the “Mean percentage of sequence” value ([1]; phylum Verrucomicrobia, colonic mucosa associated samples)?
**A.** Its value is 0.1428%.

**Q.** And the “Antimicrobial activity in vitro” value [2]?
**A.** Its value is “effective”.

**Q.** And the “Severity of induced colitis” value (induced colitis)?
**A.** The value was “less severe induced colitis”.
